# Results from patent US6833478B2 (priority 2001, dated 2004).
# Structures can show the parent of a compound that is named as a salt.
# Experiment: Volume of water needed to dissolve
# Type: physicochemical
# Details: 1 mmole (782 mg)
# From the text: Evidently, dinitramide ion quenches the fluorescence of protonated quinine.
smiles,measurement,value
C=C[C@H]1C[N@@]2CC[C@H]1C[C@H]2[C@H](O)c1ccnc2ccc(OC)cc12 [quinine sulfate],water required to dissolve,900 mL
